The target in the assay is Serine/threonine-protein kinase mTOR (Homo sapiens) (UniProt P42345). As to the kind of experiment: mTOR FRB domain ligand binding – biophysical, NMR (AID 1648). The settings on record: NMR binding to FRB domain, chemical shift.

Activity calls are given as the source filed them. How the calls were made is not given here.

Chain of Serine/threonine-protein kinase mTOR (Homo sapiens) (P42345 2015-2114): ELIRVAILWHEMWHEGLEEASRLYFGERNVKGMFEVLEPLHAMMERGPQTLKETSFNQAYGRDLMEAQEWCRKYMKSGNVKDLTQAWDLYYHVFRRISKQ

Take `O=C(c1ccncc1)N1CCN(C(=O)c2ccco2)CC1`: the Kd was > 4 mM (inactive).

Turning to `O=C(O)C1CSC(c2ccc(Cl)cc2)N1` (stereo not given), the Kd was > 4 mM (inactive). Regarding `CC1=C2[C@H]3OC(=O)[C@@H](C)[C@@H]3CC[C@@]2(C)C=CC1=O`, the Kd is > 4 mM (inactive). As to `COc1cccc(=O)c2c(C)n(C)c(C)c12`, the Kd was > 4 mM (inactive). As to `Cc1noc(C)c1C(=O)Nc1sc(C)c(C)c1C#N`, the Kd is > 4 mM (inactive). Regarding `NCc1ccc(N2CCOCC2)cc1`, the Kd was > 4 mM (inactive).

Turning to `O=C(O)c1cc2ccccc2o1`, the Kd was > 4 mM (inactive). In the case of `C[C@H]1CCCC(=O)CCC/C=C/c2cc(O)cc(O)c2C(=O)O1`, the Kd was > 4 mM (inactive).

Regarding `CC(=O)O[C@H]1C[C@@H](OC(C)=O)C(C)(C)C2C[C@@H](OC(C)=O)[C@@]3(C)C4=CC(=O)O[C@@H](c5ccoc5)[C@]4(C)CCC3[C@]21C` (stereo not given in full), the Kd is > 4 mM (inactive). With `CCOC(=O)c1c(C)nc2ccccn12`, the Kd is > 4 mM (inactive).

For the compound `Cc1ccc(NC(=O)CC2NCCNC2=O)c(C)c1` (stereo not given), the Kd was > 4 mM (inactive). Turning to `COC(=O)c1ccc(N2CCOCC2)nc1`, the Kd was > 4 mM (inactive). `CCC(C)OC1CCS(=O)(=O)C1` (stereo not given): the Kd was > 4 mM (inactive). As for `O=C(CSc1ncn[nH]1)c1ccc2c(c1)OCCO2`, the Kd was > 4 mM (inactive). On to `Nc1[nH]c(=S)ncc1S(=O)(=O)c1ccccc1`, for which the Kd is > 4 mM (inactive). `CCC(C)C(=O)O[C@@H]1C[C@@]2(C)[C@H](c3ccoc3)OC(=O)CC23OC2(C)OC34[C@H](OC(=O)C(C)C)[C@@]3(O)[C@@H](OC(=O)C5(C)OC5C)[C@@]5(C)C[C@]3(O)[C@@](C)([C@H]5CC(=O)OC)C14O2` (stereo not given in full): the Kd is > 4 mM (inactive). With `CC(=O)Nc1ccc(-c2ccc3nncn3n2)cc1`, the Kd is > 4 mM (inactive). Then `O=C(O)c1ccc2snnc2c1`, with > 4 mM (inactive). Then `O=C1c2ccccc2-c2ncnc3cccc1c23`, with > 4 mM (inactive); and `O=C(c1cc2ccccc2o1)c1nc2c(n1O)CCCCC2`, with > 4 mM (inactive); and `CC(=O)O[C@H]1CCC2(C)C3=C(CCC2C1(C)C)[C@@]1(C)CC[C@@H](C(C)CCC=C(C)C)[C@]1(C)CC3` (stereo not given in full), with > 4 mM (inactive). As for `[O-][n+]1onc2c1CCc1c-2nc(-c2ccccc2)n1O`, the Kd was > 4 mM (inactive).

In the case of `O=S1(=O)C=CC(N2CCCCC2)C1` (stereo not given), the Kd is > 4 mM (inactive). As for `O=C(NCc1ccccc1)c1ccc[n+]([O-])c1`, the Kd was > 4 mM (inactive). Regarding `COc1cc2c(cc1OC)[C@@]13CCN4CC5=CCOC6CC(=O)N2C1[C@H]6[C@H]5C[C@H]43` (stereo not given in full), the Kd was > 4 mM (inactive). Consider `Cn1c(=O)c2c(ncn2CCNC2=NCCC2)n(C)c1=O`, for which the Kd was > 4 mM (inactive). As to `O=C(NC(=S)NN1CCOCC1)c1cccs1`, the Kd is > 4 mM (inactive).

`CC1(C)CC[C@]2(C(=O)O)CC[C@]3(C)C(=CCC4[C@@]5(C)CC[C@@H](O)C(C)(C)C5CC[C@]43C)C2C1` (stereo not given in full): the Kd is > 4 mM (inactive). Then `COc1cc(/C=C/C(=O)O)ccc1O`, with > 4 mM (inactive); and `O=C(Cc1cccs1)Nc1ccon1`, with > 4 mM (inactive); and `CCN1CCC(NC2CCCCNC2=O)CC1` (stereo not given), with > 4 mM (inactive). In the case of `O=C(NCC1CCNCC1)c1ccccn1`, the Kd is > 4 mM (inactive).

For the compound `O=C(NC1=NCCS1)c1csc2ccccc12`, the Kd was > 4 mM (inactive).

Take `O=[N+]([O-])c1cccc2c1nnn2C(CO)OCCO` (stereo not given): the Kd was > 4 mM (inactive). Turning to `Cc1cc(C)n(-c2ccc(Cl)nn2)n1`, the Kd was > 4 mM (inactive). Then `CC1(C)C2CC(=O)[C@]3(C)C(CC[C@@]4(C)[C@H](c5ccoc5)OC(=O)[C@H]5O[C@]543)[C@@]2(C)C=C[C@@H]1O` (stereo not given in full), with > 4 mM (inactive). With `O=C(CCc1ccc(O)cc1)c1c(O)cc(O)cc1O`, the Kd was > 4 mM (inactive). As for `O=C(NC(=S)NCc1cccnc1)c1ccco1`, the figure is > 4 mM (inactive); as for `Cc1cc(=O)cc(C)n1NC(N)=S`, > 4 mM (inactive); as for `CCSc1nc2ccccc2[nH]1`, > 4 mM (inactive). As for `CC(=O)O[C@H]1CC[C@@]2(C)C(=CCC3C2CC[C@@]2(C)C3CC[C@@H]2C(C)CCCC(C)C)C1` (stereo not given in full), the figure is > 4 mM (inactive); as for `Clc1ccc(SCCn2cncn2)cc1`, > 4 mM (inactive); as for `C=CCN1CC[C@]23c4c5ccc(O)c4OC2C(=O)CC[C@@]3(O)[C@H]1C5` (stereo not given in full), > 4 mM (inactive).

Take `Cc1[nH]c2ccccc2c1Cc1n[nH]c(=S)n1C`: the Kd was > 4 mM (inactive). For the compound `CC(=O)Nc1c(C)n(C)n(-c2ccccc2)c1=O`, the Kd is > 4 mM (inactive). As for `O=CN1CCN(C(=O)c2ccccc2F)CC1`, the Kd is > 4 mM (inactive). As for `COc1ccc(S(=O)(=O)N2CCC(C(N)=O)CC2)cc1`, the figure is > 4 mM (inactive); as for `CP(C)(=O)CCC(=O)O`, > 4 mM (inactive). As for `CC1(C)O[C@H]2[C@H](O)C[C@](O)(C(N)=O)C[C@H]2O1`, the figure is > 4 mM (inactive); as for `O=C(CSc1ncn[nH]1)c1ccccc1`, > 4 mM (inactive); as for `NC[C@H]1O[C@H](O[C@H]2[C@H](O)[C@@H](O[C@H]3O[C@H](CO)[C@@H](O)[C@H](N)[C@H]3O)[C@H](N)C[C@@H]2N)[C@H](N)[C@@H](O)[C@@H]1O`, > 4 mM (inactive).

On to `NC(=O)CSc1nc2ncnc(N)c2[nH]1`, for which the Kd was > 4 mM (inactive). As to `O[C@H]1C=C2CCN3Cc4cc5c(cc4C(C23)[C@@H]1O)OCO5` (stereo not given in full), the Kd was > 4 mM (inactive).

`O=C(O)C1COc2ccccc2O1` (stereo not given): the Kd was > 4 mM (inactive). `O=C(O)c1ccc(-n2cccn2)cc1`: the Kd was > 4 mM (inactive). For `C[C@@H]1CC[C@]2(C(=O)O)CC[C@]3(C)C(=CCC4[C@@]5(C)CC[C@H](O)C(C)(C)C5CC[C@]43C)C2[C@H]1C` (stereo not given in full), the Kd is > 4 mM (inactive). As for `OCC1Cc2ccccc2CN1` (stereo not given), the Kd was > 4 mM (inactive). For `Nc1nc(-c2ccccc2)cc(=O)[nH]1`, the Kd is > 4 mM (inactive). As for `NCC1CN(Cc2ccccc2)CCO1` (stereo not given), the figure is > 4 mM (inactive); as for `CCOC(=O)c1csc(C2COc3ccccc3O2)n1` (stereo not given), > 4 mM (inactive). For the compound `c1ccc(C[N+]23CCN(CC2)c2ccccc23)cc1`, the Kd was > 4 mM (inactive). As to `Cc1[nH]c2ccccc2c1C(=O)CSc1ncn[nH]1`, the Kd is > 4 mM (inactive). In the case of `O=C(NC(=O)N1CCOCC1)c1ccccc1`, the Kd is > 4 mM (inactive). Turning to `NC(N)=Nc1nc2ccccc2o1`, the Kd was > 4 mM (inactive). `c1ccc(-n2cnnc2)nc1`: the Kd was > 4 mM (inactive).

For the compound `CC(=O)Nc1ccc(N2CCOCC2)cc1`, the Kd is > 4 mM (inactive). Regarding `COc1cc(OC)c2ccc(=O)oc2c1`, the Kd was > 4 mM (inactive). Regarding `CSc1ccc(/C=c2\sc3ncnn3c2=O)cc1`, the Kd was > 4 mM (inactive). With `Cc1cc(=O)c2ccccc2n1CC(N)=O`, the Kd is > 4 mM (inactive). Take `CC(=O)Nc1nnc(-c2ccccc2)o1`: the Kd is > 4 mM (inactive).

Take `Nc1ncnc2c1ncn2C1O[C@H](COP(=O)(O)O)[C@@H](O)[C@H]1O` (stereo not given in full): the Kd is > 4 mM (inactive). For the compound `COCC(=O)NC1CC(C)(C)NC(C)(C)C1`, the Kd is > 4 mM (inactive). On to `CC(C)=CC(=O)Nc1ccccc1Br`, for which the Kd was > 4 mM (inactive). Consider `O=c1[nH]cnc2nc[nH]c12`, for which the Kd was > 4 mM (inactive). For `Cc1ccccc1NC(=O)c1ocnc1C`, the Kd is > 4 mM (inactive). Take `O=C(O[C@@H]1Cc2c(O)cc(O)cc2O[C@@H]1c1cc(=O)c(O)c2c(O)c(O)cc([C@H]3Oc4cc(O)cc(O)c4C[C@H]3O)c2c1)c1cc(O)c(O)c(O)c1`: the Kd was > 4 mM (inactive).

As to `N=C1/C(=C\c2ccccc2)C(=O)N=C2SC=NN12`, the Kd was > 4 mM (inactive). As for `O=C(NCCO)c1cc2ccccc2c(=O)s1`, the Kd is > 4 mM (inactive).

Consider `NC1=NC(=O)C(CC(=O)Nc2ccccc2F)S1` (stereo not given), for which the Kd was > 4 mM (inactive). Take `C[C@@H]1O[C@@H](O[C@H]2C[C@@H](O)[C@]3(CO)C4C(CC[C@]3(O)C2)[C@@]2(O)CC[C@H](C3=CC(=O)OC3)[C@@]2(C)C[C@H]4O)[C@H](O)[C@H](O)[C@H]1O` (stereo not given in full): the Kd is > 4 mM (inactive). For the compound `O=C(Cn1cncn1)c1ccc(F)c(F)c1`, the Kd was > 4 mM (inactive). In the case of `COC(=O)CCSCC(=O)Nc1nccs1`, the Kd is > 4 mM (inactive). As to `Cc1n[nH]c(=O)nc1N1CCN(c2ccccc2)CC1`, the Kd is > 4 mM (inactive). On to `NC(=O)CSc1nnnn1-c1ccccc1`, for which the Kd was > 4 mM (inactive). As for `Cc1nn(CC(=O)N2CCCCC2)c(=O)c2ccccc12`, the figure is > 4 mM (inactive); as for `OCc1csc(-c2ccccc2)n1`, > 4 mM (inactive). For the compound `C=CCNC(=O)c1ccc(Cl)cc1Cl`, the Kd is > 4 mM (inactive). Regarding `c1cnc(N2CCSCC2)nc1`, the Kd is > 4 mM (inactive). As for `Cc1ccc(/C=N/n2c(C)nnc2C)cc1`, the figure is > 4 mM (inactive). On to `COc1cc(-c2coc3cc(OC)c(OC)c(OC)c3c2=O)cc(OC)c1OC`, for which the Kd was > 4 mM (inactive). Take `Cn1cnnc1SCC(=O)Nc1nccs1`: the Kd was > 4 mM (inactive). As for `Cc1nnc(NCc2ccc3c(c2)OCO3)[nH]c1=O`, the Kd is > 4 mM (inactive). `C=C1C2CC[C@@]3(C)[C@H](c4ccoc4)OC(=O)C[C@]13O[C@H]1CC(O)C(C)(C)C(CC(=O)OC)[C@@]21C` (stereo not given in full): the Kd was > 4 mM (inactive).

For `NS(=O)(=O)c1ccc(NC(=S)NC2CC2)cc1`, the Kd was > 4 mM (inactive). Consider `O=C1OCCC1Sc1nc2ccccc2c(=O)[nH]1` (stereo not given), for which the Kd was > 4 mM (inactive).

These data come from PubChem BioAssay AID1648 (Sanford-Burnham Center for Chemical Genomics, 2009).
